Assay results reported in patent US10844091B2 (priority 2017, dated 2020).
Marks after values point to notes of the source that are not given here. Non-standard residues stand in square brackets, D forms with d.

Columns and labels:
malonic aldehyde = experiment: Malonic aldehyde content in the brain of rat models with Alzheimer's disease; format: in vivo; details: tetrapeptide 0.1 mg/kg
[1] = system: intact animals and animals with reserpine-induced depression; experiment: Open Field Test, intact animals and animals with reserpine-induced depression; format: in vivo, rat; details: for Emotional reactions and concomitant vegetative state (total number of grooming acts, fecal boluses, and urinations) / Orientation and exploratory activity (number of explored openings and upright positions) / Sum of all results / Locomotor activity (number of squares): imipramine 15 mg/kg i.p., tetrapeptide (LYS) 0.02 mg/kg i.n.
Method: (§1) The experiment was conducted on 16 white random-bred adult male rats weighing:
(§2) 180-220 g. The antidepressant activity of tetrapeptide (LYS), a neuroprotector, at a 0.02 mg/kg dose intranasally (i.n.) was evaluated. […] The experiment was conducted in two stages. […] 25-30 min. prior to the start of the experiment, the animals were administered their respective drugs. The animals in the control group were administered 0.9% NaCl solution i.p. and i.n. in the volume equal to the volume of the medications. After that, the animals of all groups were placed in the open field (OF) for 3 min., and their locomotor (number of crossed squares), orientation, and exploratory (number of upright positions and explored openings) activity as well as their emotional reactions (fecal boluses, urination, grooming) were evaluated. The indicators of depression in the animals (latent immobilization period, the number of such instances, and their total duration) were evaluated in the Popsolt swim test (PST) over 6 min. In the next 2 days, all the medications were administered at the same dose once a day; the last administration—30 min before the depressogenic sympatholytics of reserpine. Reserpine was administered on the 3rd day (2nd stage of the experiment) at a 4 mg/kg dose i.p. (as a suspension stabilized with Tween-80). Animals in all 3 groups were evaluated 6-7 hr. later in the OF and PST.
(§3) Test results were statistically processed. When the data distribution was normal, the parametric Student's t-distribution test was applied, when it was absent, the non-parametric MannWhitney U-test was used. When processing the results in an alternative form (presence/absence of the indicator), Fisher's angular transformation φ was applied. Wilcoxon paired t-criterium test was used for the intra-group statistical evaluation of the changed in the animal test results prior and post simulated depression. The results were considered to be statistically significant when p<0.05.

reduced glutathione = experiment: Reduced glutathione level in the brain of rat models with Alzheimer's disease; format: in vivo; details: tetrapeptide 0.1 mg/kg
Method: (§4) The drugs were administered daily, once a day.
(§5) Standard biochemical methods were used to determine the content and activity of antioxidant defense enzymes and products of lipid peroxidation: malonic dialdehyde (MDA) [Modern Biochemistry Methods/[edited by V. N. Orekhovich]; M. Medicine, 1977, 392 pp]; superoxide dismutase (SOD) [O. P. Makarevich Activity of superoxide dismutase in blood in the acute period of various diseases/O. P. Makarevich, P. P. Golikov//Lab. Science, 1983, No 6, pp 24-27]; catalase [Methods for the Determination of Catalase Activity/M. A. Korolyuk, L. I. Ivanova, I. G. Mayorova, et al//Lab. Science, 1988, No 1, pp 16-19]; and reduced glutathione [T. A. Kochetov A Practical Guide to Enzymology. M. Nauka, 1980, 280 pp].

[2] = Brain weight coefficient (BWC) in rat models with Alzheimer's disease; format: in vivo; details: statistically insignificant; donepezil 1 mg/kg, tetrapeptide 0.1 mg/kg
Method: as §4
The OF and EE tests were conducted on the 1st day, PST—on the 2nd day, CPAR—on the 1st and 10th day post treatment with the preparations. […] The antiamnesic action (AA) in the CPAR test was calculated using Butler's formula [K. S. Radionova. […] After that, the animals were removed from the experiment by administering a narcotic, followed by decapitation. The brain was extracted and weighed, and the brain weight coefficient (BWC) was calculated. Immediately after extraction, the brain was frozen in liquid nitrogen and used in subsequent biochemical and histochemical studies. Glucose levels in whole arterial (common carotid artery) and venous (venous cerebral sinus) blood were determined by the glucose oxidase test, the difference in the arterial-venous glucose content was calculated (glucose consumption marker). The levels of average weight molecules—the toxic products of cell biodegradation damaged during the disease (nucleoside derivatives, peptoids, glucuronic acid salts, etc.) in the blood serum (AWM) were calculated [A. N. Kovalevsky. Notes on the screening method of determination average weight molecules/A. N. Kovalevsky, O. Ye. Nifantiev//Lab. Science. […] 35-39].

[3] = system: intact rats and animals with reserpine-induced depression; experiment: Popsolt swim test, intact rats and animals with reserpine-induced depression; format: in vivo, rat; details: for Number of immobilization episodes / Total duration of immobilization / Latent immobilization period: imipramine 15 mg/kg i.p., tetrapeptide (LYS) 0.02 mg/kg i.n.
Method: as §1, §2, §3

superoxide dismutase = experiment: Superoxide dismutase activity in the brain of rat models with Alzheimer's disease; format: in vivo; details: tetrapeptide 0.1 mg/kg
Method: as §4, §5

serotonin = experiment: Serotonin level in the brain of rat models with Alzheimer's disease; format: in vivo; details: donepezil 1 mg/kg, tetrapeptide 0.1 mg/kg
Method: as §4
M. I. Prokhorova, Leningrad, pub.

[4] = R - reserpine-induced depression
[5] = reserpine-induced depression, p<0.05

acetyl-D-Lys-Lys-Arg-Arg-amide (Ac-[dK]KRR-NH2; SMILES CC(=O)N[C@H](CCCCN)C(=O)N[C@@H](CCCCN)C(=O)N[C@@H](CCCNC(=N)N)C(=O)N[C@@H](CCCNC(=N)N)C(N)=O) [tetrapeptide (LYS), peptide acetyl-X-ARG-ARG-amide, X = D- and L-amino acid residues of lysine]
reduction of malonic aldehyde content in the brain relative to the pathology group (malonic aldehyde): 39.8% | Emotional reactions and concomitant vegetative state (total number of grooming acts, fecal boluses, and urinations) ([1]; I - intact animals): 1.8 ± 0.77^ | Orientation and exploratory activity (number of explored openings and upright positions) ([1]; I - intact animals): 5.8 ± 0.77 | Sum of all results ([1]; I - intact animals): 11.6 ± 2.49*^ | Locomotor activity (number of squares) ([1]; I - intact animals, 3 min): 4.0 ± 1.34*^ | Locomotor activity (number of squares) ([1]; R - reserpine-induced depression (4 mg/kg i.p.)): 3.4 ± 2.4 | Emotional reactions and concomitant vegetative state (total number of grooming acts, fecal boluses, and urinations) [1, 4]: 0.2 ± 0.2 | Orientation and exploratory activity (number of explored openings and upright positions) [1, 4]: 4.6 ± 2.4 | Sum of all results [1, 4]: 8.2 ± 4.98 | Emotional reactions and concomitant vegetative state, % change reserpine-induced depression vs. intact animals ([1]; R vs I): (−88.9%) ® | Locomotor activity, % change reserpine-induced depression vs. intact animals ([1]; R vs I): (−15.0%) | Orientation and exploratory activity, % change reserpine-induced depression vs. intact animals ([1]; R vs I): (−20.69%) | Sum of all results, % change reserpine-induced depression vs. intact animals ([1]; R vs I): (−29.3%) | decrease of emotional reaction level compared to intact animals ([1]; reserpine-induced depression): 9 times | reduction of locomotor activity (crossed squares) compared to intact animals ([1]; reserpine-induced depression): 15% | reduction of orientation and exploratory activity compared to intact animals ([1]; reserpine-induced depression): 20.7% | reduction of the sum of all types of activities compared to intact animals ([1]; reserpine-induced depression): 29.3% | increase of the level of reduced glutathione in the brain (reduced glutathione): 36.6% | reduction of the brain weight coefficient (BWC) [2]: 14.3% | Number of immobilization episodes ([3]; I - intact animals): 1.2 ± 0.6 | Total duration of immobilization ([3]; I - intact animals): 4.0 ± 2.7 s | Latent immobilization period ([3]; I - intact animals, 6 min): 214.6 ± 66.7 s | Latent immobilization period [3, 4]: 170.8 ± 34.1 s | Number of immobilization episodes [3, 4]: 3.0 ± 0.38 | Total duration of immobilization [3, 4]: 7.8 ± 2.3 s | Latent immobilization period, % change reserpine-induced depression vs. intact animals ([3]; R vs I): (−20.4)^ % | Number of immobilization episodes, % change reserpine-induced depression vs. intact animals ([3]; R vs I): (+150.0%) | Total duration of immobilization, % change reserpine-induced depression vs. intact animals ([3]; R vs I): (+95.0%) | increase of the latent immobilization period compared to the control ([3]; intact animals, p<0.05): 3.5 times | reduction of the number of immobilization periods compared to the control ([3]; intact animals, p<0.05): 11.5 times | reduction of total duration of immobilization compared to the control ([3]; intact animals, p<0.05): 16.1 times | increase of the latent immobilization period compared to the control [3, 5]: 4.5 times | reduction of the number of immobilization episodes compared to the control [3, 5]: 2.6 times | reduction of total duration of immobilization compared to the control [3, 5]: 3.6 times | increase of SOD activity compared to the pathology group (superoxide dismutase): 22% | reduction of the serotonin level in the brain (serotonin): 23.8%
